Data published in patent US12660819B2, “Herbicidal derivatives” (SYNGENTA CROP PROTECTION AG, priority 2020, dated 2026).

Legend:
Type in all cases: in vivo
[1] = system: Amaranthus retoflexus (AMARE); experiment: Pre-emergence Test (glasshouse, percentage damage to the plant); settings: 1000 g/ha unless otherwise stated, five-point scale
[2] = system: Amaranthus retoflexus (AMARE); experiment: Post-emergence Test (glasshouse, percentage damage to the plant); settings: post-emergence spray, 1000 g/ha unless otherwise stated, evaluated after 13 days
Description: (§1) Seeds of a variety of test species are sown in standard soil in pots (Amaranthus retoflexus (AMARE), Solanum nigrum (SOLNI), Setaria faberi (SETFA), Lolium perenne (LOLPE), Echinochloa crus-galli (ECHCG), Ipomoea hederacea (IPOHE), Abutilon theophrasti (ABUTH), Zea mays (ZEAMX), Amaranthus palmeri (AMAPA). After 8 days cultivation under controlled conditions in a glasshouse (at 24° C./16° C., day/night; 14 hours light; 65% humidity), the plants are sprayed with an aqueous spray solution derived from the formulation of the technical active ingredient in acetone/water (50:50) solution containing 0.5% Tween 20 (polyoxyethelyene sorbitan monolaurate, CAS RN 9005-64-5). Compounds are applied at 1000 g/ha unless otherwise stated. The test plants are then grown in a glasshouse under controlled conditions in a glasshouse (at 24° C./16° C., day/night; 14 hours light; 65% humidity) and watered twice daily. After 13 days the test is evaluated for the percentage damage caused to the plant. The biological activities are shown in the following table on a five-point scale (5=81-100%; 4=61-80%; 3=41-60%; 2=21-40%; 1=0-20%).

Zea mays (ZEAMX) [3] = experiment: as above; settings: post-emergence spray, 1000 g/ha unless otherwise stated, evaluated after 13 days
Description: as §1

[4] = system: Ipomoea hederacea (IPOHE); experiment: as above; settings: post-emergence spray, 1000 g/ha unless otherwise stated, evaluated after 13 days
Description: as §1

Setaria faberi (SETFA) [5] = experiment: as above; settings: post-emergence spray, 1000 g/ha unless otherwise stated, evaluated after 13 days
Description: as §1

[6] = system: Echinochloa crus-galli (ECHCG); experiment: Pre-emergence Test (glasshouse, percentage damage to the plant); settings: 1000 g/ha unless otherwise stated, five-point scale
[7] = system: Abutilon theophrasti (ABUTH); experiment: as above; settings: 1000 g/ha unless otherwise stated, five-point scale
Zea mays (ZEAMX) [8] = experiment: as above; settings: 1000 g/ha unless otherwise stated, five-point scale
Setaria faberi (SETFA) [9] = experiment: as above; settings: 1000 g/ha unless otherwise stated, five-point scale
[10] = system: Ipomoea hederacea (IPOHE); experiment: as above; settings: 1000 g/ha unless otherwise stated, five-point scale

| SMILES | percentage damage to the plant, AMARE [1] | Post-emergence Test AMARE, percentage damage to the plant (five-point scale) [2] | Post-emergence Test ZEAMX, percentage damage to the plant (five-point scale) (Zea mays (ZEAMX) [3]) | Post-emergence Test IPOHE, percentage damage to the plant (five-point scale) [4] | Post-emergence Test SETFA, percentage damage to the plant (five-point scale) (Setaria faberi (SETFA) [5]) | percentage damage to the plant, ECHCG [6] | percentage damage to the plant, ABUTH [7] | percentage damage to the plant, ZEAMX (Zea mays (ZEAMX) [8]) | percentage damage to the plant, SETFA (Setaria faberi (SETFA) [9]) | percentage damage to the plant, IPOHE [10] |
| --- | --- | --- | --- | --- | --- | --- | --- | --- | --- | --- |
| CCn1c(C)c(-c2cc(C(F)(F)F)ccc2Cl)c(=O)c(C(=O)O)c1-c1ccc(Cl)cc1 [Compound 183, 2-(4-chlorophenyl)-5-[2-chloro-5-(trifluoromethyl)phenyl]-1-ethyl-6-methyl-4-oxo-pyridine-3-carboxylic acid] | 0 | 3 (3=41-60%) | 3 (3=41-60%) | 3 (3=41-60%) | 2 (2=21-40%) | 0 | 0 | 0 | 0 | 0 |
| CCn1c(C)c(-c2ccc([N+](=O)[O-])cc2)c(=O)c(C(=O)O)c1-c1ccc(Cl)cc1 [Compound 194, 2-(4-chlorophenyl)-1-ethyl-6-methyl-5-(4-nitrophenyl)-4-oxo-pyridine-3-carboxylic acid] | 0 | 0 | 1 (1=0-20%) | 0 | 2 (2=21-40%) | 0 | 0 | 2 (2=21-40%) | 0 | 0 |
| CCn1c(C)c(-c2ccc(Cl)c(Cl)c2)c(=O)c(C(=O)O)c1-c1ccc(Cl)cc1 [Compound 195, 2-(4-chlorophenyl)-5-(3,4-dichlorophenyl)-1-ethyl-6-methyl-4-oxo-pyridine-3-carboxylic acid] | 2 (2=21-40%) | 4 (4=61-80%) | 2 (2=21-40%) | 3 (3=41-60%) | 2 (2=21-40%) | 2 (2=21-40%) | 0 | 0 | 1 (1=0-20%) | 0 |
| CCn1c(C)c(-c2cc(OC)ccc2F)c(=O)c(C(=O)O)c1-c1ccc(Cl)cc1 [Compound 189, 2-(4-chlorophenyl)-1-ethyl-5-(2-fluoro-5-methoxy-phenyl)-6-methyl-4-oxo-pyridine-3-carboxylic acid] | 1 (1=0-20%) | 2 (2=21-40%) | 1 (1=0-20%) | 1 (1=0-20%) | 2 (2=21-40%) | 2 (2=21-40%) | 3 (3=41-60%) | 0 | 2 (2=21-40%) | 1 (1=0-20%) |
| CCn1c(C)c(-c2cccc(C(F)(F)F)c2)c(=O)c(C(=O)O)c1-c1ccnc(Cl)c1 [Compound 145, 2-(2-chloro-4-pyridyl)-1-ethyl-6-methyl-4-oxo-5-[3-(trifluoromethyl)phenyl] pyridine-3-carboxylic acid] | 1 (1=0-20%) | 1 (1=0-20%) | 1 (1=0-20%) | 2 (2=21-40%) | 3 (3=41-60%) | 2 (2=21-40%) | 1 (1=0-20%) | 0 | 3 (3=41-60%) | 0 |
| CCn1c(C)c(-c2cc(C)c(Cl)c(C)c2)c(=O)c(C(=O)O)c1-c1ccc(Cl)cc1 [Compound 197, 5-(4-chloro-3,5-dimethyl-phenyl)-2-(4-chlorophenyl)-1-ethyl-6-methyl-4-oxo-pyridine-3-carboxylic acid] | 0 | 1 (1=0-20%) | 1 (1=0-20%) | 2 (2=21-40%) | 1 (1=0-20%) | 0 | 0 | 0 | 0 | 0 |
| CCn1c(C)c(-c2ccc(C#N)c(C(F)(F)F)c2)c(=O)c(C(=O)O)c1-c1ccc(Cl)cc1 [Compound 187, 2-(4-chlorophenyl)-5-[4-cyano-3-(trifluoromethyl)phenyl]-1-ethyl-6-methyl-4-oxo-pyridine-3-carboxylic acid] | 1 (1=0-20%) | 3 (3=41-60%) | 2 (2=21-40%) | 3 (3=41-60%) | 2 (2=21-40%) | 1 (1=0-20%) | 3 (3=41-60%) | 1 (1=0-20%) | 2 (2=21-40%) | 2 (2=21-40%) |
| CCn1c(C)c(-c2cc(Cl)ccc2Cl)c(=O)c(C(=O)O)c1-c1ccc(Cl)cc1 [Compound 185, 2-(4-chlorophenyl)-5-(2,5-dichlorophenyl)-1-ethyl-6-methyl-4-oxo-pyridine-3-carboxylic acid] | 0 | 3 (3=41-60%) | 1 (1=0-20%) | 2 (2=21-40%) | 3 (3=41-60%) | 0 | 0 | 0 | 0 | 0 |
| CCn1c(C)c(-c2cc(F)cc(C#N)c2)c(=O)c(C(=O)O)c1-c1ccc(Cl)cc1 [Compound 190, 2-(4-chlorophenyl)-5-(3-cyano-5-fluoro-phenyl)-1-ethyl-6-methyl-4-oxo-pyridine-3-carboxylic acid] | 1 (1=0-20%) | 1 (1=0-20%) | 1 (1=0-20%) | 1 (1=0-20%) | 2 (2=21-40%) | 2 (2=21-40%) | 0 | 2 (2=21-40%) | 2 (2=21-40%) | 1 (1=0-20%) |
| CCn1c(C)c(-c2ccc(Cl)c(C#N)c2)c(=O)c(C(=O)O)c1-c1ccc(Cl)cc1 [Compound 196, 5-(4-chloro-3-cyano-phenyl)-2-(4-chlorophenyl)-1-ethyl-6-methyl-4-oxo-pyridine-3-carboxylic acid] | 1 (1=0-20%) | 3 (3=41-60%) | 2 (2=21-40%) | 3 (3=41-60%) | 3 (3=41-60%) | 2 (2=21-40%) | 0 | 0 | 1 (1=0-20%) | 1 (1=0-20%) |
| CCn1c(C)c(-c2ccc(C(F)(F)F)c(Cl)c2)c(=O)c(C(=O)O)c1-c1ccc(Cl)cc1 [Compound 170, 2-(4-chlorophenyl)-5-[3-chloro-4-(trifluoromethyl)phenyl]-1-ethyl-6-methyl-4-oxo-pyridine-3-carboxylic acid] | 1 (1=0-20%) | 5 (5=81-100%) | 2 (2=21-40%) | 3 (3=41-60%) | 1 (1=0-20%) | 0 | 0 | 0 | 0 | 0 |
